Consider 5 compounds from ChEMBL document CHEMBL1201862, “PubChem BioAssay data set” (2004).

The source made the active and inactive calls. Where only a bound is given, the exact number is not on record here.

One test deals with Nonstructural protein 1 (Influenza A virus, UniProt Q194T2). The format is functional, Influenza A virus (A/California/07/2009(H1N1)).
The target in test [1] is T1, Alkaline phosphatase, tissue-nonspecific isozyme (Homo sapiens, UniProt P05186).
T1 sequence (P05186 whole entry): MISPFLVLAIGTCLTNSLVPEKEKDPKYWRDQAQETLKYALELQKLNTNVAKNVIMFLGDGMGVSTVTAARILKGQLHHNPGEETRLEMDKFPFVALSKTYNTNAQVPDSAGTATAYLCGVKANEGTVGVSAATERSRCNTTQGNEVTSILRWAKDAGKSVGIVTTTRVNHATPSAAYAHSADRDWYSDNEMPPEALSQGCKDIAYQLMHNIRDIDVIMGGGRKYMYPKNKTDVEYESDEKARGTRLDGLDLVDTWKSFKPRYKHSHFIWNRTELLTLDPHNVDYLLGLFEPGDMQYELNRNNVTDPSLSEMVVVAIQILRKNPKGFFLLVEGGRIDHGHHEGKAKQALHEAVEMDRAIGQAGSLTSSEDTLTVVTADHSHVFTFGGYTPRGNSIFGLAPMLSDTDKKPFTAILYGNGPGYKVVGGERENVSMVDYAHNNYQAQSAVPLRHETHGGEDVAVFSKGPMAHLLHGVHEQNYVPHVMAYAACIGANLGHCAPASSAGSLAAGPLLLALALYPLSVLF
The experiment in a line: activation of tissue-nonspecific alkaline phosphatase – biochemical, TNAP isozyme, mouse IAP uHTS hits, selectivity assay for mouse IAP activator project, dose response (AID 488880). The class given is functional.

The next test deals with Ephrin type-A receptor 4 (Mus musculus, UniProt Q03137). Nature of the test: EphA4 ligand-binding antagonists – biochemical, colorimetric, mouse EphA4, primary screen (AID 689). The class given is functional.
The next test concerns the target T2, Bcl-2-like protein 10 (Homo sapiens, UniProt Q9HD36).
T2 sequence (Q9HD36 whole entry): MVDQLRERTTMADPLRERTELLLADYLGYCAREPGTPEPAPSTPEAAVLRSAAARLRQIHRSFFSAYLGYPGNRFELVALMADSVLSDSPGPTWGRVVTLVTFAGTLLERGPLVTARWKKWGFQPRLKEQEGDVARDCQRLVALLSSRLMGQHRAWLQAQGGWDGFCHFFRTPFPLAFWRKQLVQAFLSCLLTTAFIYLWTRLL
Nature of the test: Bcl-B/TR3 peptide binding disruption – biochemical, fluorescence polarization, FITC-TR3 peptide, selectivity assay for Bfl-1 inhibitor project, primary screen (AID 748). Background: Fluorescence polarisation rises when a labelled molecule tumbles more slowly, as on binding a larger partner.

The target of test [2] is RAC-gamma serine/threonine-protein kinase (Homo sapiens, UniProt Q9Y243). The format is functional.
Test [3] concerns the target Testis-specific serine/threonine-protein kinase 1 (Homo sapiens, UniProt Q9BXA7). The class given is functional.
In test [4] the target is Tyrosine-protein kinase Srms (Homo sapiens, UniProt Q9H3Y6). The class given is functional.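 Note: SRMS measured as one member of a kinome-wide kinase profiling panel.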
Test [5] concerns the target Serine/threonine-protein kinase PLK4 (Homo sapiens, UniProt O00444). The format is functional.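 Note: PLK4 measured as one member of a kinome-wide kinase profiling panel.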
In test [6] the target is Calcium/calmodulin-dependent protein kinase type 1 (Homo sapiens, UniProt Q14012). The class given is functional.
Test [7] has as its target Tyrosine-protein kinase ITK/TSK (Homo sapiens, UniProt Q08881). The format is functional.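 Note: affinity for ITK measured as one member of a broad kinase panel profiling binding across the kinome.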
Test [8] concerns the target Receptor tyrosine-protein kinase erbB-4 (Homo sapiens, UniProt Q15303). The format is functional.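 Note: ERBB4 member of a kinome-wide kinase profiling panel.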
For test [9], the target named is Serine/threonine-protein kinase 17A (Homo sapiens, UniProt Q9UEE5). The format is functional.
Test [10] has as its target Mitogen-activated protein kinase 12 (Homo sapiens, UniProt P53778). The format is functional.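 Note: measured as one member of a kinome-wide kinase profiling panel.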
Test [11] addresses Tyrosine-protein kinase Lyn (Homo sapiens, UniProt P07948). The class given is functional.
Test [12] has as its target Testis-specific serine/threonine-protein kinase 2 (Homo sapiens, UniProt Q96PF2). The class given is functional.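 Note: part of the Navigating the Kinome panel, target entry STK22B.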
The target in test [13] is Casein kinase II subunit alpha (Homo sapiens, UniProt P68400). The format is functional.
In test [14] the target is Tyrosine-protein kinase receptor UFO (Homo sapiens, UniProt P30530). The class given is functional.
Test [15] has as its target MAP kinase-activated protein kinase 2 (Homo sapiens, UniProt P49137). The format is functional.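 Note: measured as one member of a kinome-wide kinase panel.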
Test [16] concerns the target Mitogen-activated protein kinase kinase kinase 20 (Homo sapiens, UniProt Q9NYL2). The class given is functional.
Test [17] addresses Mitogen-activated protein kinase 9 (Homo sapiens, UniProt P45984). The class given is functional.
The target of test [18] is Mast/stem cell growth factor receptor Kit (Homo sapiens, UniProt P10721). The format is functional.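 Note: KIT entry within a kinase panel assay.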
Test [19] addresses Serine/threonine-protein kinase Nek4 (Homo sapiens, UniProt P51957). The format is functional.
In test [20] the target is Serine/threonine-protein kinase PAK 4 (Homo sapiens, UniProt O96013). The format is functional.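 Note: value obtained within a kinome profiling panel in which PAK4 was one of the panel members.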
The target in test [21] is T3, Sentrin-specific protease 8 (Homo sapiens, UniProt Q96LD8).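 Note: kinetic enzyme assay of SENP8 cleaving a Nedd8 protein substrate, dose-response confirmation of screening hits.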
T3 sequence (Q96LD8 whole entry): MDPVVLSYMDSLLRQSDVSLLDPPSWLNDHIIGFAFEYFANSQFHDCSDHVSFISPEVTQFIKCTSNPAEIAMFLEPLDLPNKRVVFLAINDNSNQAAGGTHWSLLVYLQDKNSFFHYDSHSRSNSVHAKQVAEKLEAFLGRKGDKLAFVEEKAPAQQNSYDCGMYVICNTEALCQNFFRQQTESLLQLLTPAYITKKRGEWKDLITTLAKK
The format is functional.

The target of the next test is Genome polyprotein (dengue virus type 2, UniProt P29990). Nature of the test: flavivirus cap methylation enzyme inhibition – biochemical, confirmation dose response, primary screen (AID 588689). The class given is functional.
The nature of test [22]: general cell-killing toxicity readout – plate reader, dry powder samples, cytotoxicity control for PAX8 inhibitor project, dose response (AID 743021). The format is functional, cell-based.
A further test deals with CHO. The experiment in a line: CHO cell viability loss, potency – luminescence, cytotoxicity control for TLR9-MyD88 binding inhibitor project, dose response (AID 588339).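 Note: CHO cells stably coexpressing TLR9 and MyD88 fusions from primary screen; compound exposure lasted 48 hours before viability readout.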 Particulars: Cricetulus griseus. The format is functional, cell-based, hamster.
The target in test [23] is Sphingosine 1-phosphate receptor 4 (Homo sapiens, UniProt O95977). Nature of the test: Fluorescence dose response cell-based high throughput screening assay for antagonists of the Sphingosine 1-Phosphate Receptor 4 (S1P4). [Related pubchem assays: 1524 (Confirmation in triplicates.), 1510 (Primary screen.)]. The class given is functional.
In test [24] the target is Voltage-gated N-type calcium channel alpha-1B subunit/Amyloid beta A4 precursor protein-binding family A member 1 (Homo sapiens, UniProt Q00975+Q02410). The class given is protein assay.

Serine/threonine-protein kinase 17A, sequence (Q9UEE5 whole entry): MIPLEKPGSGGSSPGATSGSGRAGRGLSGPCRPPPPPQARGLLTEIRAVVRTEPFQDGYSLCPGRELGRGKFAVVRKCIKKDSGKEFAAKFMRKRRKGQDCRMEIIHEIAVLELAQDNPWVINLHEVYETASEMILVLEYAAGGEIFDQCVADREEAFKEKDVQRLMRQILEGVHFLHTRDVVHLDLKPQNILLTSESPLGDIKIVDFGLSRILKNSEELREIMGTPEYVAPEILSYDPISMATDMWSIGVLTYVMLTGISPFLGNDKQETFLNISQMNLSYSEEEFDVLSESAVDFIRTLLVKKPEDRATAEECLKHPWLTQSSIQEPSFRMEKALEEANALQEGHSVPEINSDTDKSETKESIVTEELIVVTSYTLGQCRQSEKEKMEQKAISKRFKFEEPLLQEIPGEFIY
Genome polyprotein, sequence (P29990 2492-3391 limits assumed): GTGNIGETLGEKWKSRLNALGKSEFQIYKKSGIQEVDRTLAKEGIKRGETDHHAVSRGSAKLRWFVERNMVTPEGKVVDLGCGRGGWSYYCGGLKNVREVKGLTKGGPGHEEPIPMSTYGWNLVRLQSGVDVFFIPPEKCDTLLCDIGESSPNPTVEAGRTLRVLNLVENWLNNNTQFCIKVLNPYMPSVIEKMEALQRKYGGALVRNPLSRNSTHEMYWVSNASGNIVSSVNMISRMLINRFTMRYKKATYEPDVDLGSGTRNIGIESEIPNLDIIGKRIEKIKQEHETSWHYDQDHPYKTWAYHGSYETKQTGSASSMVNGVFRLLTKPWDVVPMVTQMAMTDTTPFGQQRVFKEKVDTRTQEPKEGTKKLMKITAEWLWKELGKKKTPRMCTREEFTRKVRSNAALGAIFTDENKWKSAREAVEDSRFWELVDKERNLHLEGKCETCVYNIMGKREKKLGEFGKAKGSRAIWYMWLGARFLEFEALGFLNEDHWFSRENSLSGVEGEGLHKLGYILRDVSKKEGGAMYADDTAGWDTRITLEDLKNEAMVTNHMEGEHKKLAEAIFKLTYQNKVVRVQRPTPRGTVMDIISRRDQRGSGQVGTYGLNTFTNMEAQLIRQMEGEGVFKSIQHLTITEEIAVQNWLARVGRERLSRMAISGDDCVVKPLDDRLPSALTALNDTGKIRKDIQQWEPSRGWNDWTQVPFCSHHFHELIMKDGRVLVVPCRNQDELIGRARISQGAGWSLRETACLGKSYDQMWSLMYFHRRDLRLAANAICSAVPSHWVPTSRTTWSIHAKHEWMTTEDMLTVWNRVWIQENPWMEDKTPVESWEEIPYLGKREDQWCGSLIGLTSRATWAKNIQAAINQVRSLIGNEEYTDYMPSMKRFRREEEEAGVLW
Ephrin type-A receptor 4, sequence (Q03137 whole entry): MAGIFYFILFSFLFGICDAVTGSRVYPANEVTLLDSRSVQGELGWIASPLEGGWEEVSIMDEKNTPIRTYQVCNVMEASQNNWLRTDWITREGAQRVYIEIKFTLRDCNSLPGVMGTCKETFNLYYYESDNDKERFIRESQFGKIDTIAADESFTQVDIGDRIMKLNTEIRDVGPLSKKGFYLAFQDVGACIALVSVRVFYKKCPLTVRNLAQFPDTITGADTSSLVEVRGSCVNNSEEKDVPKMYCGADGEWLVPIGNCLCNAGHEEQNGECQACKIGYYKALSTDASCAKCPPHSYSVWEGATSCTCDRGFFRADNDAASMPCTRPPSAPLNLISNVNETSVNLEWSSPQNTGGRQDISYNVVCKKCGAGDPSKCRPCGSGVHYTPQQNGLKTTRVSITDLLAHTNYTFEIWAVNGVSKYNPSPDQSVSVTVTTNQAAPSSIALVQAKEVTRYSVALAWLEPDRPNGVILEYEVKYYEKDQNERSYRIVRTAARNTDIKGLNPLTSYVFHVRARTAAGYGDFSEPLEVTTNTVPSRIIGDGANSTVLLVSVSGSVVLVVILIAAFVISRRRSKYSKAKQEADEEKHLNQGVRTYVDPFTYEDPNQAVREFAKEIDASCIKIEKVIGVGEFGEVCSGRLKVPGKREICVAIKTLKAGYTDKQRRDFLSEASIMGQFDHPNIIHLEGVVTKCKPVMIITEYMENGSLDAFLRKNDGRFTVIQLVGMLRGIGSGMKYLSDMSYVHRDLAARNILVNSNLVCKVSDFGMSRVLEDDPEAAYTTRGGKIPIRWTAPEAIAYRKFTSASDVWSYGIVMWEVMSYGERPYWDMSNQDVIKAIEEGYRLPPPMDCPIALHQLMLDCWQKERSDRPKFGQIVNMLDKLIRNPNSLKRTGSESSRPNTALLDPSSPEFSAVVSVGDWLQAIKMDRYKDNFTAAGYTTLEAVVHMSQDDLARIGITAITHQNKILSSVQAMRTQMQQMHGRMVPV
Testis-specific serine/threonine-protein kinase 1, sequence (Q9BXA7 whole entry): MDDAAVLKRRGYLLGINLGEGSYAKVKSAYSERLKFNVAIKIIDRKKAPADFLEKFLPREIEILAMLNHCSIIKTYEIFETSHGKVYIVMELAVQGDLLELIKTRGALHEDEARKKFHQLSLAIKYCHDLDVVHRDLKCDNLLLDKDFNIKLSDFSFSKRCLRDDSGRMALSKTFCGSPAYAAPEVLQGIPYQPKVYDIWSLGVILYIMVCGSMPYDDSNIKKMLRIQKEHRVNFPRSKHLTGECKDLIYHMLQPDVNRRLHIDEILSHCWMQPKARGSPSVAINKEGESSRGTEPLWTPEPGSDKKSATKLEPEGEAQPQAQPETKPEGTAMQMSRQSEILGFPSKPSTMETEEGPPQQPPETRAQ
Mitogen-activated protein kinase 9, sequence (P45984 whole entry): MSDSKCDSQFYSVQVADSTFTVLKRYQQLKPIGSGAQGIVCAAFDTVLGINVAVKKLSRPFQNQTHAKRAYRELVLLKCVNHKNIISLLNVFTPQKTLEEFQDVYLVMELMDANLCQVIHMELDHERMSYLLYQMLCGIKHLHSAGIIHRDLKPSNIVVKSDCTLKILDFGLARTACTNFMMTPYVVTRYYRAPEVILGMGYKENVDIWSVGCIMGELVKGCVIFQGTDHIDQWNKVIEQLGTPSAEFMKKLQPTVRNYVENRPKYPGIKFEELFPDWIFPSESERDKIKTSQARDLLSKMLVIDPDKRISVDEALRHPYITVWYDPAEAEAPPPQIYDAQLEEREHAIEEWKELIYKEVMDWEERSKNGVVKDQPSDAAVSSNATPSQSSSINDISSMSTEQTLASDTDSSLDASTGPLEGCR
Receptor tyrosine-protein kinase erbB-4, sequence (Q15303 whole entry): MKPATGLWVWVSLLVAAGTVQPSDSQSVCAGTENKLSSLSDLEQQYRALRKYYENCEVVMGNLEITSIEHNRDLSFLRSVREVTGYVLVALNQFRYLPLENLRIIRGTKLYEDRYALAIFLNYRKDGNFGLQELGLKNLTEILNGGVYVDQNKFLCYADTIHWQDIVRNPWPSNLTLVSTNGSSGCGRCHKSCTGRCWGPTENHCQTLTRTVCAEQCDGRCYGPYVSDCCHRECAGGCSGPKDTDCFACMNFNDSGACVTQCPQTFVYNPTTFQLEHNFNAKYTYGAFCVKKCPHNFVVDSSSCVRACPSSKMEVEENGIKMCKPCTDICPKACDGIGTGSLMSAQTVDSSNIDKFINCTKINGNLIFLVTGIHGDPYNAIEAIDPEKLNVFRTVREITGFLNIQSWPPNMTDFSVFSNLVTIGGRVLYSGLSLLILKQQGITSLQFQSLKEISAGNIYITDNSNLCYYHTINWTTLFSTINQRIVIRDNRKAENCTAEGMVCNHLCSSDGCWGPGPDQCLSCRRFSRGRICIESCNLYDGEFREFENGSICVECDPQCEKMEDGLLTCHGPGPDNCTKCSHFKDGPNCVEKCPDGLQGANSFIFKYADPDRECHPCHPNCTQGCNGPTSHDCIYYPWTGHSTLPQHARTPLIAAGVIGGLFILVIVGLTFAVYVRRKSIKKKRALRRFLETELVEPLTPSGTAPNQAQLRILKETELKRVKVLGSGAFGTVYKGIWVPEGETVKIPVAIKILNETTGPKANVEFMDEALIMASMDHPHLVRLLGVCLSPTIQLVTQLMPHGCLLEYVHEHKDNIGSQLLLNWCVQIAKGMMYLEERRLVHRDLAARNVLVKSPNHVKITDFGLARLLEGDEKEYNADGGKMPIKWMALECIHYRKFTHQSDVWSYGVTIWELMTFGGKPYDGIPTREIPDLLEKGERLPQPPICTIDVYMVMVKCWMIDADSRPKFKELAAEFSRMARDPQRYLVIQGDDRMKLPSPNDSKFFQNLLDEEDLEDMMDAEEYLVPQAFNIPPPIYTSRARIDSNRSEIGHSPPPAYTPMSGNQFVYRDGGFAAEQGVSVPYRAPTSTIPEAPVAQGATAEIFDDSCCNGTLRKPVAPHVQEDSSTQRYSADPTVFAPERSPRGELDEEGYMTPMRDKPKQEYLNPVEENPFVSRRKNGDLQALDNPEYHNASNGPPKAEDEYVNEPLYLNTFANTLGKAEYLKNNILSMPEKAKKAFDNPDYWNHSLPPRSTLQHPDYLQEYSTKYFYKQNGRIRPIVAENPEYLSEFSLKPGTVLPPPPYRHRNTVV
Tyrosine-protein kinase ITK/TSK, sequence (Q08881 whole entry): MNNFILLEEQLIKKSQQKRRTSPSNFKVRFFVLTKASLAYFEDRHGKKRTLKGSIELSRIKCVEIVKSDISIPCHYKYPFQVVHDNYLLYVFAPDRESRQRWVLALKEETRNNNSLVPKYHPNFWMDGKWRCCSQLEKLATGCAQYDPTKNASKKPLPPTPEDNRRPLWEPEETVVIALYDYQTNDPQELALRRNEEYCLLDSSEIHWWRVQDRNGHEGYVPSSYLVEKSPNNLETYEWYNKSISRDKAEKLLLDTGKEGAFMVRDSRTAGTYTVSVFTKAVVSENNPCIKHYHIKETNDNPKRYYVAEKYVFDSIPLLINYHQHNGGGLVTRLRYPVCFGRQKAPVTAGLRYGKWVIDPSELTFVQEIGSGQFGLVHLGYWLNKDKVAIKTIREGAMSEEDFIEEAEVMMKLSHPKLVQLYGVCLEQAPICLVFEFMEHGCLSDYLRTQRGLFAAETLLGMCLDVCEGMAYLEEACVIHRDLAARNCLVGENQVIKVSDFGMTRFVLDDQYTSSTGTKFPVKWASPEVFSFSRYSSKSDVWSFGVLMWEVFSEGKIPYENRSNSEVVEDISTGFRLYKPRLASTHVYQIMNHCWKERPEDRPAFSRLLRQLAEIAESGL

The term IC50 denotes the concentration at which inhibition is half-maximal. Consider `Cc1ccc(NC2=C/C(=N\S(=O)(=O)c3cccs3)c3ccccc3C2=O)c(C)c1`, for which the IC50 at Nonstructural protein 1 was 6480 nM (active).

For orientation: EC50 means the concentration that produces a half-maximal response. In the case of `Oc1ccc(-c2cn3c(n2)SCC3)cc1O`, the EC50 in test [1] is 70900 nM (active). Moreover, the IC50 is 42300 nM (active) at Ephrin type-A receptor 4 and 79100 nM (inactive) on Bcl-2-like protein 10.

As a reminder, the Ki is a measure of affinity in units of concentration, obtained from inhibition or displacement. Regarding `O=C1Nc2ccc3ncsc3c2C1=CNc1ccc(S(=O)(=O)Nc2ccccn2)cc1`, the Ki was > 10000 nM (inactive) in [2]; 316 nM (active) in test [3]; > 1580 nM (inactive) in test [4]; 12.6 nM (active) in test [5]; > 1260 nM (inactive) in test [6]; 126 nM (active) in test [7]. The Ki is > 3980 nM (inactive) in test [8]; 3.98 nM (active) in test [9]; 3160 nM (active) in test [10]; 398 nM (active) in test [11]; > 1580 nM (inactive) in test [12]; 501 nM (active) in test [13]. In addition, the Ki in test [14] is 20 nM (active); in test [15] it was 1260 nM (active); in [16] it was 200 nM (active); in [17], 126 nM (active); in test [18], > 1260 nM (inactive); in [19], 501 nM (active). In addition, the Ki in [20] is 200 nM (active).

Consider `COc1ccc(/C=N/NC(=O)c2nn(-c3ccccc3)c(=O)c3c(N)scc23)cc1`, for which, in test [21], the IC50 is 415 nM (active).

In general, AC50 refers to the concentration at which the activity in the assay is half-maximal. Regarding `CC(=O)N(C1=C(Cl)C(=O)c2ccccc2C1=O)C1CCCCC1`, the IC50 on Genome polyprotein was 38300 nM (active); with CHO, 802 nM (active); in test [23] it was 2030 nM (active); in [24], 745 nM (active). Further, the AC50 in test [22] was 21500 nM (active).
